Source: US12644087B2, “Methods to generate polymer scaffolds having a gradient of crosslinking density” (The University of North Carolina at Chapel Hill, priority 2016, dated 2026)

System: primary human small intestinal epithelial cells
Experimental: Continuous monolayers of primary human small intestinal epithelial cells were generated on the crosslinked collagen hydrogel scaffold. […] (FIG. 3B) Fluorescence images of cells showing the EDU staining (white/light gray) and Hoechst 33342 (dark gray). The cell culture time was 10 days for A and B. (FIG. 3C) TEER vs. time (n=3 scaffolds).
To test this hypothesis, human small intestinal epithelial cells were plated on a hydrogel scaffold prepared in this manner, and the cell growth and TEER were monitored for up to 14 days (FIG. 3C). […] At day 10, the cells were stained with EDU (3-h pulse) to assess proliferating cells and Hoecsht nuclear stain to enable assessment of cell coverage across the scaffold (FIGS. 3A and 3B).

- permeability of Lucifer yellow (apical to basal diffusion): 2.4±0.7 ×10^−8 cm·s^−1
Substance: Lucifer yellow
